Measured values reported in US9085555B2, “Complement pathway modulators and uses thereof” (priority 2011, dated 2015).
pIC50: −log10 of the molar value.

Target: Factor D (Homo sapiens (Human), UniProt P00746)
Experiment: biochemical
Format: biochemical
Details: read-out: IC50

Factor D, sequence (P00746 26-253): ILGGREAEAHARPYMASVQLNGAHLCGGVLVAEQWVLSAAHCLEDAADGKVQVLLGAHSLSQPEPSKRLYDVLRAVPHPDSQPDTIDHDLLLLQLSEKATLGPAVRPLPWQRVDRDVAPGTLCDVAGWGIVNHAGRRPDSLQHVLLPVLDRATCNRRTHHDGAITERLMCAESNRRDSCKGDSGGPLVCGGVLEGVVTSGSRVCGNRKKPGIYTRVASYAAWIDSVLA

Row | Structure (SMILES) | pIC50
1 | CC(=O)c1nn(CC(=O)N2[C@@H]3C[C@@H]3C[C@H]2C(=O)N[C@H](CCN(C)C)c2cccc(Cl)c2F)c2ccccc12 [Example 642, (1R,3S,5R)-2-[2-(3-Acetyl-indazol-1-yl)-acetyl]-2-aza-bicyclo[3.1.0]hexane-3-carboxylic acid [(R)-1-(3-chloro-2-fluoro-phenyl)-3-dimethylamino-propyl]-amide] | 7.82
2 | NC(=O)n1cc(NC(=O)N2C[C@H](F)C[C@H]2C(=O)NCc2cccc(Cl)c2F)c2ccc(O)cc21 [Example 393, 2S,4R)-4-Fluoro-pyrrolidine-1,2-dicarboxylic acid 1-[(1-carbamoyl-6-hydroxy-1H-indol-3-yl)-amide]2-(3-chloro-2-fluoro-benzylamide] | 8.15
3 | COC1CN(C(=O)c2cc(Cl)c(F)c(CNC(=O)[C@@H]3C[C@@H](F)CN3C(=O)Nc3cn(C(N)=O)c4ccccc34)c2)C1 [Example 255, (2S,4R)-4-Fluoro-pyrrolidine-1,2-dicarboxylic acid 1-[(1-carbamoyl-1H-indol-3-yl)-amide] 2-[3-chloro-2-fluoro-5-(3-methoxy-azetidine-1-carbonyl)-benzylamide]] | 6.36
4 | NC(=O)n1cc(NC(=O)N2C[C@@H](N)C[C@H]2C(=O)NCc2ccccc2-c2ccccc2)c2ccccc21 [Example 51, (2S,4S)-4-Amino-pyrrolidine-1,2-dicarboxylic acid 2-[(biphenyl-2-ylmethyl)-amide] 1-[(1-carbamoyl-1H-indol-3-yl)-amide]] | 5.07
5 | NC(=O)n1cc(NC(=O)N2C[C@H](F)C[C@H]2CNS(=O)(=O)c2cccc(OC(F)(F)F)c2)c2ccccc21 [Example 109, 3-({(2S,4R)-4-Fluoro-2-[(3-trifluoromethoxy-benzenesulfonylamino)-methyl]-pyrrolidine-1-carbonyl}-amino)-indole-1-carboxylic acid amide] | 5.57
6 | CCC(=O)c1cn(CC(=O)N2[C@@H]3C[C@@H]3C[C@H]2C(=O)NCc2cccc(Cl)c2F)c2cnccc12 [Example 645, (1R,3S,5R)-2-[2-(3-Propionyl-pyrrolo[2,3-c]pyridin-1-yl)-acetyl]-2-aza-bicyclo [3.1.0]hexane-3-carboxylic acid 3-chloro-2-fluoro-benzylamide] | 6.88
7 | CC(=O)c1cn(CC(=O)N2C[C@H](F)C[C@H]2C(=O)NCc2cccc(Br)c2F)c2ccccc12 [Example 516, (2S,4R)-1-[2-(3-Acetyl-indol-1-yl)-acetyl]-4-fluoro-pyrrolidine-2-carboxylic acid 3-bromo-2-fluoro-benzyl amide] | 8.10
8 | NC(=O)n1cc(NC(=O)N2C[C@H](F)C[C@H]2C(=O)Nc2cc(Br)cc(C(=O)O)c2)c2ccccc21 [Example 159, 3-bromo-5-{[(2S,4R)-1-(1-carbamoyl-1H-indol-3-ylcarbamoyl)-4-fluoro-pyrrolidine-2-carbonyl]-amino}-benzoic acid] | 7.26
9 | CC(C)c1cccc(NC(=O)[C@@H]2C[C@H]3C[C@H]3N2C(=O)Nc2cn(C(N)=O)c3ccccc23)c1 [Example 285, (1R,3S,5R)-2-Aza-bicyclo[3.1.0]hexane-2,3-dicarboxylic acid 2-[(1-carbamoyl-1H-indol-3-yl)-amide] 3-[(3-isopropyl-phenyl)-amide]] | 7.26
10 | CC(=O)c1cn(CC(=O)N2[C@@H]3C[C@@H]3C[C@H]2C(=O)NCc2cccc(Cl)c2F)c2ncncc12 [Example 649, (1R,3S,5R)-2-[2-(5-Acetyl-pyrrolo[2,3-d]pyrimidin-7-yl)-acetyl]-2-aza-bicyclo [3.1.0]hexane-3-carboxylic acid 3-chloro-2-fluoro-benzylamide] | 6.36
11 | COC(=O)Cc1ccc2c(C(C)=O)cn(CC(=O)N3[C@@H]4C[C@@H]4C[C@H]3C(=O)NCc3cccc(Cl)c3F)c2c1 [Example 545, (3-Acetyl-1-{2-[(1R,3S,5R)-3-(3-chloro-2-fluoro-benzylcarbamoyl)-2-aza-bicyclo[3.1.0]hex-2-yl]-2-oxo-ethyl}-1H-indol-6-yl)-acetic acid methyl ester] | 6.95
12 | C[C@@H]1CC[C@@H](C(=O)NCc2cccc(Cl)c2F)N1C(=O)Nc1cn(C(N)=O)c2ccccc12 [Example 350, 2S,5R)-5-Methyl-pyrrolidine-1,2-dicarboxylic acid 1-[(1-carbamoyl-1H-indol-3-yl)-amide]2-(3-chloro-2-fluoro-benzylamide] | 7.07
13 | NC(=O)n1cc(NC(=O)N2C[C@H](F)C[C@H]2C(=O)Nc2cc(C(=O)O)cc(Br)c2F)c2ccccc21 [Example 343, 3-Bromo-5-{[(2S,4R)-1-(1-carbamoyl-1H-indol-3-ylcarbamoyl)-4-fluoro-pyrrolidine-2-carbonyl]-amino}-4-fluoro-benzoic acid] | 7.52
14 | NC(=O)c1cc(NC(=O)N2CCC[C@H]2C(=O)Nc2cccc(OC(F)(F)F)c2)n2ccccc12 [Example 123, (S)-Pyrrolidine-1,2-dicarboxylic acid 1-[(1-carbamoyl-indolizin-3-yl)-amide]2-[(3-trifluoromethoxy-phenyl)-amide]] | 5.53
15 | NC(=O)n1cc(NC(=O)N2CCS[C@H]2C(=O)Nc2cncc(Cl)c2)c2ccccc21 [Example 310, (S)-Thiazolidine-2,3-dicarboxylic acid 3-[(1-carbamoyl-1H-indol-3-yl)-amide] 2-[(5-chloro-pyridin-3-yl)-amide]] | 6.32
16 | CC(=O)c1nn(CC(=O)N2[C@@H]3C[C@@H]3C[C@H]2C(=O)Nc2cccc(C(F)(F)F)n2)c2cnccc12 [Example 733, (1R,3S,5R)-2-[2-(3-Acetyl-pyrazolo[3,4-c]pyridin-1-yl)-acetyl]-2-aza-bicyclo[3.1.0] hexane-3-carboxylic acid (6-trifluoromethyl-pyridin-2-yl)-amide] | 7.60
17 | NC(=O)n1cc(NC(=O)N2C3CC3C[C@H]2C(=O)NCc2cccc(Cl)c2F)c2cc(F)ccc21 (stereo partly drawn) [Example 294, (1R,3S,5R)-2-Aza-bicyclo[3.1.0]hexane-2,3-dicarboxylic acid 2-[(1-carbamoyl-5-fluoro-1H-indol-3-yl)-amide] 3-(3-chloro-2-fluoro-benzylamide)] | 8.30
18 | C[C@@]12C[C@@H](C(=O)Nc3cccc(OC(F)(F)F)c3F)N(C(=O)Cn3nc(C(N)=O)c4ccncc43)[C@@H]1C2 [Example 738, 1-{2-[(1R,3S,5R)-3-(2-Fluoro-3-trifluoromethoxy-phenylcarbamoyl)-5-methyl-2-aza-bicyclo[3.1.0]hex-2-yl]-2-oxo-ethyl}-1H-pyrazolo[3,4-c] pyridine-3-carboxylic acid amide] | 7.03
19 | CN(C)CCOc1ccc2c(c1)c(NC(=O)N1[C@@H]3C[C@@H]3C[C@H]1C(=O)NCc1cccc(Cl)c1F)cn2C(N)=O [Example 387, 1R,3S,5R)-2-Aza-bicyclo[3.1.0]hexane-2,3-dicarboxylic acid 2-{[1-carbamoyl-5-(2-dimethylamino-ethoxy)-1H-indol-3-yl]-amide}3-(3-chloro-2-fluoro-benzylamide] | 7.24
20 | CC(=O)c1cn(CC(=O)N2C[C@H](F)[C@@H](F)[C@H]2C(=O)NCc2cccc(Cl)c2F)c2ccccc12 [Example 773, (2R,3S,4S)-1-[2-(3-Acetyl-indol-1-yl)-acetyl]-3,4-difluoro-pyrrolidine-2-carboxylic acid 3-chloro-2-fluoro-benzylamide] | 7.55
21 | NC(=O)n1cc(NC(=O)N2C[C@@H](N)C[C@H]2C(=O)NCc2cccc(F)c2F)c2ccccc21 [Example 52, (2S,4S)-4-Amino-pyrrolidine-1,2-dicarboxylic acid 1-[(1-carbamoyl-1H-indol-3-yl)-amide] 2-(2,3-difluoro-benzylamide)] | 6.40
22 | COCC(=O)c1cn(CC(=O)N2C[C@H](F)C[C@H]2C(=O)NCc2cccc(Cl)c2F)c2ccccc12 [Example 565, (2S,4R)-4-Fluoro-1-{2-[3-(2-methoxy-acetyl)-indol-1-yl]-acetyl}-pyrrolidine-2-carboxylic acid 3-chloro-2-fluoro-benzylamide] | 6.43
23 | NC(=O)n1cc(NC(=O)N2C[C@@H](C(=O)O)C[C@H]2C(=O)NCc2c(F)ccc(Cl)c2F)c2ccccc21 [Example 354, (3S,5S)-1-(1-Carbamoyl-1H-indol-3-ylcarbamoyl)-5-(3-chloro-2,6-difluoro-benzylcarbamoyl)-pyrrolidine-3-carboxylic acid] | 5.78
24 | NC(=O)c1nn(CC(=O)N2[C@@H]3C[C@@H]3C[C@H]2C(=O)Nc2cccc(Br)n2)c2cnccc12 [Example 728, 1-{2-[(1R,3S,5R)-3-(6-bromo-pyridin-2-ylcarbamoyl)-2-aza-bicyclo[3.1.0]hex-2-yl]-2-oxo-ethyl}-1H-pyrazolo[3,4-c] pyridine-3-carboxylic acid amide] | 8.10
25 | CCOC(=O)c1cc(Br)c(F)c(NC(=O)[C@@H]2C[C@@H](F)CN2C(=O)Nc2cn(C(N)=O)c3ccccc23)c1 [Example 333, 3-Bromo-5-{[(2S,4R)-1-(1-carbamoyl-1H-indol-3-ylcarbamoyl)-4-fluoro-pyrrolidine-2-carbonyl]-amino}-4-fluoro-benzoic acid ethyl ester] | 7.33
26 | NC(=O)n1cc(CC(=O)N2[C@@H]3C[C@@H]3C[C@H]2C(=O)NCc2ccc(Cl)s2)c2ccccc21 [Example 456, 3-(2-{(1R,3S,5R)-3-[(5-Chloro-thiophen-2-ylmethyl)-carbamoyl]-2-aza-bicyclo[3.1.0]hex-2-yl}-2-oxo-ethyl)-indole-1-carboxylic acid amide] | 7.07
27 | NC(=O)c1nn(CC(=O)N2CCCC[C@H]2C(=O)NCc2cccc(Cl)c2F)c2cnccc12 [Example 656, 1-{2-[(S)-2-(3-Chloro-2-fluoro-benzylcarbamoyl)-piperidin-1-yl]-2-oxo-ethyl}-1H-pyrazolo[3,4-c]pyridine-3-carboxylic acid amide] | 6.45
28 | COc1cc2c(C(C)=O)nn(CC(=O)N3[C@@H]4C[C@@H]4C[C@H]3C(=O)NCc3cccc(Cl)c3F)c2cc1OC [Example 647, (1R,3S,5R)-2-[2-(3-Acetyl-5,6-dimethoxy-indazol-1-yl)-acetyl]-2-aza-bicyclo [3.1.0]hexane-3-carboxylic acid 3-chloro-2-fluoro-benzylamide] | 7.80
